Calls of active or inactive are those of the source. How the calls were made is not given here.

We go through six compounds from PubChem BioAssay AID1259407 (Chemical Carcinogenesis Research Information System (CCRIS), 2018).

The data set deals with CCRIS mutagenicity, Ames/micronucleus/aberration tests. Briefly: CCRIS mutagenicity studies.
Setting [1] is: Test System: AMES SALMONELLA TYPHIMURIUM, Strain/Indicator: TA98, Metabolic Activation: NONE, Method: PREINCUBATION
The mark [2] stands for this setting: Test System: AMES SALMONELLA TYPHIMURIUM, Strain/Indicator: TA100, Metabolic Activation: HAMSTER, LIVER, S-9, AROCLOR 1254 (10%), Method: PREINCUBATION
[3] abbreviates: Test System: AMES SALMONELLA TYPHIMURIUM, Strain/Indicator: TA100, Metabolic Activation: NONE, Method: PREINCUBATION
Setting [4] is: Test System: AMES SALMONELLA TYPHIMURIUM, Strain/Indicator: TA100, Metabolic Activation: RAT, LIVER, S-9, AROCLOR 1254 (10%), Method: PREINCUBATION
Setting [5] is: Test System: AMES SALMONELLA TYPHIMURIUM, Strain/Indicator: TA1535, Metabolic Activation: HAMSTER, LIVER, S-9, AROCLOR 1254 (10%), Method: PREINCUBATION
The mark [6] stands for this setting: Test System: AMES SALMONELLA TYPHIMURIUM, Strain/Indicator: TA1535, Metabolic Activation: NONE, Method: PREINCUBATION
The mark [7] stands for this setting: Test System: AMES SALMONELLA TYPHIMURIUM, Strain/Indicator: TA1535, Metabolic Activation: RAT, LIVER, S-9, AROCLOR 1254 (10%), Method: PREINCUBATION
Setting [8] is: Test System: AMES SALMONELLA TYPHIMURIUM, Strain/Indicator: TA1537, Metabolic Activation: NONE, Method: PREINCUBATION
The mark [9] stands for this setting: Test System: AMES SALMONELLA TYPHIMURIUM, Strain/Indicator: TA98, Metabolic Activation: NONE, Method: STANDARD PLATE.
Setting [10] is: Test System: AMES SALMONELLA TYPHIMURIUM, Strain/Indicator: TA98, Metabolic Activation: RAT, LIVER, S-9, AROCLOR 1254, Method: STANDARD PLATE.
Where [11] appears, read: Test System: AMES SALMONELLA TYPHIMURIUM, Strain/Indicator: TA100, Metabolic Activation: NONE, Method: STANDARD PLATE.
Where [12] appears, read: Test System: AMES SALMONELLA TYPHIMURIUM, Strain/Indicator: TA100, Metabolic Activation: RAT, LIVER, S-9, AROCLOR 1254, Method: STANDARD PLATE.

Take `CCOC(=O)c1ccccc1N`: the mutagenic call by setting is: (Test System: AMES SALMONELLA TYPHIMURIUM, Strain/Indicator: TA98, Metabolic Activation: HAMSTER, LIVER, S-9, AROCLOR 1254 (10%), Method: PREINCUBATION) “inactive; negative”; under setting [1], “inactive; negative”; (Test System: AMES SALMONELLA TYPHIMURIUM, Strain/Indicator: TA98, Metabolic Activation: RAT, LIVER, S-9, AROCLOR 1254 (10%), Method: PREINCUBATION) “inactive; negative”; under setting [2], “inactive; negative”; under setting [3], “inactive; negative”; under setting [4], “inactive; negative”. For the same compound, the mutagenic call is, setting by setting: under setting [5], “inactive; negative”; under setting [6], “inactive; negative”; under setting [7], “inactive; negative”; (Test System: AMES SALMONELLA TYPHIMURIUM, Strain/Indicator: TA1537, Metabolic Activation: HAMSTER, LIVER, S-9, AROCLOR 1254 (10%), Method: PREINCUBATION) “inactive; negative”; under setting [8], “inactive; negative”; (Test System: AMES SALMONELLA TYPHIMURIUM, Strain/Indicator: TA1537, Metabolic Activation: RAT, LIVER, S-9, AROCLOR 1254 (10%), Method: PREINCUBATION) “inactive; negative”.
For `Cc1c(N=O)c(=O)n(-c2ccccc2)n1C`, the mutagenic call (Test System: AMES SALMONELLA TYPHIMURIUM, Strain/Indicator: TA97, Metabolic Activation: NONE, Method: STANDARD PLATE) was “active; positive”; the mutagenic call (Test System: AMES SALMONELLA TYPHIMURIUM, Strain/Indicator: TA97, Metabolic Activation: RAT, LIVER, S-9, AROCLOR 1254, Method: STANDARD PLATE) was “active; positive”; the mutagenic call under setting [9] was “active; positive”; the mutagenic call under setting [10] was “active; positive”; the mutagenic call under setting [11] is “active; positive”; the mutagenic call under setting [12] is “active; positive”. In addition, the mutagenic call is “active; positive” (Test System: AMES SALMONELLA TYPHIMURIUM, Strain/Indicator: TA102, Metabolic Activation: NONE, Method: STANDARD PLATE); “active; positive” (Test System: AMES SALMONELLA TYPHIMURIUM, Strain/Indicator: TA102, Metabolic Activation: RAT, LIVER, S-9, AROCLOR 1254, Method: STANDARD PLATE); “active; positive” (Test System: AMES SALMONELLA TYPHIMURIUM, Strain/Indicator: TA104, Metabolic Activation: NONE, Method: STANDARD PLATE); “active; positive” (Test System: AMES SALMONELLA TYPHIMURIUM, Strain/Indicator: TA104, Metabolic Activation: RAT, LIVER, S-9, AROCLOR 1254, Method: STANDARD PLATE).
Turning to `O=C/C=C/c1ccco1`, the mutagenic call reads like this: (Test System: AMES SALMONELLA TYPHIMURIUM, Strain/Indicator: TA97, Metabolic Activation: HAMSTER, LIVER, S-9, AROCLOR 1254 (10%), Method: PREINCUBATION) “inactive; negative”; (Test System: AMES SALMONELLA TYPHIMURIUM, Strain/Indicator: TA97, Metabolic Activation: HAMSTER, LIVER, S-9, AROCLOR 1254 (30%), Method: PREINCUBATION) “inactive; negative”; (Test System: AMES SALMONELLA TYPHIMURIUM, Strain/Indicator: TA97, Metabolic Activation: NONE, Method: PREINCUBATION) “inactive; negative”; (Test System: AMES SALMONELLA TYPHIMURIUM, Strain/Indicator: TA97, Metabolic Activation: RAT, LIVER, S-9, AROCLOR 1254 (10%), Method: PREINCUBATION) “inactive; negative”; (Test System: AMES SALMONELLA TYPHIMURIUM, Strain/Indicator: TA97, Metabolic Activation: RAT, LIVER, S-9, AROCLOR 1254 (30%), Method: PREINCUBATION) “inactive; negative”; (Test System: AMES SALMONELLA TYPHIMURIUM, Strain/Indicator: TA98, Metabolic Activation: HAMSTER, LIVER, S-9, AROCLOR 1254 (10 OR 30%), Method: PREINCUBATION) “inactive; negative”. Also, the mutagenic call under setting [1] was “inactive; negative”; the mutagenic call (Test System: AMES SALMONELLA TYPHIMURIUM, Strain/Indicator: TA98, Metabolic Activation: RAT, LIVER, S-9, AROCLOR 1254 (10 OR 30%), Method: PREINCUBATION) is “inactive; negative”; the mutagenic call (Test System: AMES SALMONELLA TYPHIMURIUM, Strain/Indicator: TA100(NR), Metabolic Activation: NONE, Method: PREINCUBATION) is “inactive; negative”; the mutagenic call under setting [2] was “inactive; negative”; the mutagenic call (Test System: AMES SALMONELLA TYPHIMURIUM, Strain/Indicator: TA100, Metabolic Activation: HAMSTER, LIVER, S-9, AROCLOR 1254 (30%), Method: PREINCUBATION) is “inactive; negative”; the mutagenic call under setting [3] was “inactive; negative”. The mutagenic call is, setting by setting: under setting [4], “inactive; negative”; (Test System: AMES SALMONELLA TYPHIMURIUM, Strain/Indicator: TA100, Metabolic Activation: RAT, LIVER, S-9, AROCLOR 1254 (30%), Method: PREINCUBATION) “inactive; negative”; (Test System: AMES SALMONELLA TYPHIMURIUM, Strain/Indicator: TA100, Metabolic Activation: RAT, LIVER, S-9, AROCLOR 1254, Method: PREINCUBATION) “inactive; negative”; under setting [5], “inactive; negative”; (Test System: AMES SALMONELLA TYPHIMURIUM, Strain/Indicator: TA1535, Metabolic Activation: HAMSTER, LIVER, S-9, AROCLOR 1254 (30%), Method: PREINCUBATION) “inactive; negative”; under setting [6], “inactive; negative”. In addition, the mutagenic call was “inactive; negative” under setting [7] and “inactive; negative” (Test System: AMES SALMONELLA TYPHIMURIUM, Strain/Indicator: TA1535, Metabolic Activation: RAT, LIVER, S-9, AROCLOR 1254 (30%), Method: PREINCUBATION).
In the case of `C=CC[N+](C)(C)CC=C`, the mutagenic call reads like this: under setting [1], “inactive; negative”; (Test System: AMES SALMONELLA TYPHIMURIUM, Strain/Indicator: TA98, Metabolic Activation: RAT LIVER S-9, PHENOBARBITAL AND BETA-NAPHTHOFLAVONE, Method: PREINCUBATION) “inactive; negative”; under setting [3], “inactive; negative”; (Test System: AMES SALMONELLA TYPHIMURIUM, Strain/Indicator: TA100, Metabolic Activation: RAT LIVER S-9, PHENOBARBITAL AND BETA-NAPHTHOFLAVONE, Method: PREINCUBATION) “inactive; negative”; under setting [6], “inactive; negative”; (Test System: AMES SALMONELLA TYPHIMURIUM, Strain/Indicator: TA1535, Metabolic Activation: RAT LIVER S-9, PHENOBARBITAL AND BETA-NAPHTHOFLAVONE, Method: PREINCUBATION) “inactive; negative”. For the same compound, the mutagenic call runs as follows: under setting [8], “inactive; negative”; (Test System: AMES SALMONELLA TYPHIMURIUM, Strain/Indicator: TA1537, Metabolic Activation: RAT LIVER S-9, PHENOBARBITAL AND BETA-NAPHTHOFLAVONE, Method: PREINCUBATION) “inactive; negative”; (Test System: E.COLI, Strain/Indicator: WP2UVRA/PKM101, Metabolic Activation: NONE, Method: PREINCUBATION) “inactive; negative”; (Test System: E.COLI, Strain/Indicator: WP2UVRA/PKM101, Metabolic Activation: RAT LIVER S-9, PHENOBARBITAL AND BETA-NAPHTHOFLAVONE, Method: PREINCUBATION) “inactive; negative”.
As to `C=C(C=O)CCCC`, the mutagenic call is, setting by setting: under setting [3], “active; positive”; (Test System: AMES SALMONELLA TYPHIMURIUM, Strain/Indicator: TA100, Metabolic Activation: RAT LIVER S-9, AROCLOR 1254, Method: PREINCUBATION) “active; positive”.
As to `ClC(Cl)=C(Cl)c1ccc(Cl)c(Cl)c1Cl`, the mutagenic call under setting [9] was “inactive; negative”, the mutagenic call under setting [10] was “inactive; negative”, the mutagenic call under setting [11] is “inactive; negative” and the mutagenic call under setting [12] was “inactive; negative”.
